{
  "source": "EPA's ToxValDB 9.5 (doi:10.2903/j.efsa.2013.3213)",
  "test_system": "Rattus norvegicus",
  "settings": "chronic",
  "data": [
    {"smiles": "CCOP(=O)=O.CCOP(=O)=O.CCOP(=O)=O.[Al+3]", "note": "[Fosetyl aluminum]", "values": [
      {"measurement": "NOAEL", "result": 232, "unit": "mg/kg-day"}
    ]}
  ]
}
